The record followed here is a melting point compilation (Tetko et al.; mined from patent text by program, amines drawn as free bases though some values may be those of a salt).

In general, melting point refers to the temperature, or range, at which the solid turns liquid. Compound `CC1=NN(c2cccc(C(=O)O)c2)C(=O)C1=c1[nH]c(=c2[nH]c(=C3C(=O)N(c4cccc(C(=O)O)c4)N=C3C)c3ccccc23)c2ccccc12` registered a melting point of over 300 °C. Then `CC(C)(C)NC(=NC#N)Nc1cnc2ccccc2c1`, with 228 to 229 °C; and `O=C(O)c1cn(C2CC2)c2nc(N3Cc4cccc(Cl)c4C3)c(F)cc2c1=O`, with over 300 °C. In turn, `O=C(Nc1ccc(CP(=O)(O)O)cc1)C1=Cc2cc(C3CCCCC3)ccc2CC1` yielded a melting point of 203 to 205 °C. Then `CN1CCN(c2ccc(N/C=C3\C(=O)NC(=O)c4ccc(-n5cccc5)cc43)cc2)CC1`, with 239 to 240 °C; and `Fc1ccc(Nc2ncnc3cnc(N4CCCCCC4)nc23)cc1Cl`, with 87 to 90 °C.

`CC1c2ccccc2CC(=O)Cc2ccccc21` gave a melting point of 152 to 155 °C. Compound `CS(=O)(=O)c1ccc(C(=O)O)c(C(F)(F)F)c1F` had a melting point of 250 to 252 °C. The result for `CC12C=CCC1C1CCC3CC(=O)CCC3(C)C1CC2` (stereo not given) reads 140 to 141 °C; that for `CN(C(=O)COc1nc(C(Cl)(Cl)Cl)ns1)C1=CCCCC1`, 78 °C. The result for `C[C@H]1Cn2c(=O)[nH]c3ccc(Br)c(c32)CN1C(=O)OC(C)(C)C` reads 229 °C; that for `CCCCCCCCOCCCCC(=O)O`, under 30 °C; that for `C=CCn1c(C(F)(F)F)nc2cc(-n3c(=O)cc(C(F)(F)F)n(C)c3=O)ccc21`, 185 to 187 °C.

`O=C(CCC(F)(F)Cl)Nc1ccccn1`: the melting point lay in the range of 64 to 65 °C. For `CC(C)(C)OC(=O)CN1CCN(c2ccncc2)C1=O`, the melting point lay within 147 to 148 °C. Then `COc1cc(Nc2c(C#N)cnc3cc4cc(OCCn5nccn5)c(OC)cc4cc23)c(Cl)cc1Cl`, with 285 to 287 °C.

`COc1ccc(CN2C(=O)C(C)(c3cc(N(C)C(=O)CN(C)C)ccc3Cl)c3cc(Cl)ccc32)c(OC)c1` (stereo not given) showed a melting point of 104 °C. The compound `CCOC(=O)C(=O)Nc1ccc(C#N)cc1[N+](=O)[O-]` gave a melting point of 152 °C. The result for `Cc1nc2ccccc2c(=O)n1CCO` reads 159 to 160 °C; that for `CC1CCN(C2=NCC(=O)N(C)c3ccccc32)CC1`, 106 to 108 °C; that for `CC(=O)Nc1c(-c2c(F)cc(F)cc2F)c(Cl)nc2ncnn12`, 108 to 111 °C. The result for `COc1cccc(-n2nc(Cl)cc2-c2ccc(S(C)(=O)=O)cc2)c1` reads 103 to 104 °C; that for `O=C(O)Cc1cccc(CCNC(=O)C2Cc3ccccc3N2S(=O)(=O)c2ccc(-c3cccc(C(F)(F)F)c3)cc2)c1` (stereo not given), 90 °C. `CC(=O)Nc1nc2c(Oc3cc(-c4ccc(C(F)(F)F)cc4N)ncn3)cccc2s1` had a melting point of 160 to 161 °C. The result for `CC(=O)Nc1ccccc1Sc1ccc([N+](=O)[O-])cc1[N+](=O)[O-]` reads 183 to 184 °C; that for `O=C(O)CCCCNC(=O)C(CS)Cc1ccccc1` (stereo not given), 78 to 79 °C. Then `COc1cc2c(cc1OC)-c1cc(Nc3c(C)cccc3C)nc(=O)n1CC2`, with 297 to 299 °C; and `CCOC(=O)N1CCC(c2ccc3oc(-c4ccc(S(C)(=O)=O)cc4F)nc3c2)CC1`, with 145 to 148 °C; and `O=C(Nc1ccc2cc(CN3CCCC3)cnc2c1)c1ccc(-c2ccccc2)cc1`, with 192 to 194 °C. The result for `Cc1c(-c2ccc(O)cc2)nnn1-c1ccc(C(F)(F)F)cc1Cl` reads 176 to 177 °C; that for `CC1(CS(=O)(=O)c2ccccc2)COC2(CCC(=O)CC2)OO1` (stereo not given), 96 °C.

As to `C=CCC1(C(C)CC(=O)O)C(=O)NC(=O)NC1=O` (stereo not given), the melting point amounted to 200 °C.

`CN(C(=O)CN(C(=O)CNC(=O)Nc1cccc(N2CCCCC2)c1)c1ccccc1)c1ccccc1` showed a melting point of 235 °C.

Regarding `CCC(=O)N(CC)c1cccc(-c2ccc(Cl)nn2)c1`, the melting point lay within 118 to 119 °C. Then `FCc1cccc(C#CCCn2nc3cc(F)c(F)cc3n2)n1`, with 104 to 105 °C; and `CN(C)CCNC(=O)Cn1c(-c2cccc(Cl)c2)nc2cccnc21`, with 124 to 125 °C. In turn, `C[C@H](CSC(=O)c1ccccc1)C(=O)N(CC(=O)OC(C)(C)C)C1CCCC1` showed a melting point of 54 to 56 °C.

Turning to `Cc1c(C(=O)Nc2ncc(CO)s2)nnn1Cc1ccc(Cl)c(Cl)c1`, the melting point amounted to 170 °C.

`COc1ccc(C2CN(Cc3ccccc3)Cc3c2ccc(OC)c3Cl)cc1OC` (stereo not given) returned a melting point of 88 to 91 °C. Then `CCC(=O)C1=C(O)CC(c2cc3ccccc3cc2C)CC1=O` (stereo not given), with 118 °C; and `CC1(C)CC(=C2CC(C)(C)NC(C)(C)C2)CC(C)(C)N1`, with 144 to 145 °C; and `COc1ccc2c(c1)CCC1=C2CCC(O)C1` (stereo not given), with 90 to 92 °C. The result for `CCCCC(C(=O)N[C@@H](CC(=O)O)c1ccc2c(c1)OCO2)N1C(=O)N(Cc2ccccc2)C(=O)C1(C)C` (stereo not given in full) reads 53 to 55 °C. Then `COC(=O)c1cnc(C(=O)OC)c2ccccc12`, with 69 to 70 °C. `Cn1c(-c2ccc([N+](=O)[O-])cc2)nc2ccccc21` returned a melting point of 208 to 209 °C. Consider `OCc1cn(-c2ccc(-c3ccccc3)cc2)cn1`, for which the melting point lay in the range of 173 to 177 °C. The result for `O=C(c1ccccc1)c1nc(Br)ccc1[N+](=O)[O-]` reads 146 to 148 °C; that for `Nc1cc(N2CC(CCc3ccccc3)OC2=O)ccn1` (stereo not given), 143 to 144 °C. In turn, `CCNC(=O)/C=C(C)/C=C/C=C(C)/C=C/c1c(C)cc(OC(F)(F)F)c(C)c1C` registered a melting point of 198 to 200 °C. With `Cn1cc(Br)nc(Nc2cnn(C3CC3)c2)c1=O`, the melting point lay within 228 to 230 °C. Then `O=C=Nc1cc(Cl)c(Br)cc1CBr`, with 48 to 50 °C. For `C[C@@H]1COC(=O)N1c1nc(-c2ccc(Br)cc2)cs1`, the melting point was in the range of 189 to 190 °C.

In turn, `Cc1ccccc1C(Nc1ccncc1)c1ccccc1` (stereo not given) showed a melting point of 141 to 143 °C. The result for `COC(=O)c1cc(F)ccc1Nc1ccnc2c(C(F)(F)F)cccc12` reads 166 °C; that for `CCOC(=O)NC(=NCCCc1c[nH]cn1)NCCSCc1ccccc1`, 91 to 92 °C; that for `OCCOc1cn(-c2ccc(F)cc2)c2cc(Cl)ccc12`, 97 to 98 °C. Then `O=c1ccc2c(-n3ccnc3)nccc2[nH]1`, with 291 to 292 °C.

As for `O=C(NCCCn1cc(Cn2ccnc2)c2ccccc21)Nc1ccccc1`, the melting point lay in the range of 177 to 178 °C. For `COC(=O)c1sc(Cl)nc1-c1ccccc1`, the melting point lay within 55 to 57 °C.

Compound `COC(=O)CS(=O)(=O)c1ccc(OC)c(OC)c1` returned a melting point of 81 to 83 °C.

On to `[O-][N+](=CC=Cc1ccccc1)c1ccccc1`, for which the melting point was 150 to 152 °C.

Regarding `CCCC1=C(C(=O)O)C(CC)n2ncc(C(=O)OCC)c2N1` (stereo not given), the melting point was in the range of 160 to 161 °C. The result for `COc1ccc(-c2nc(C(F)(F)F)cn2-c2ccc(C#N)cc2)cc1` reads 146 to 148 °C. The result for `CNC(=O)c1ccccc1Nc1nc(Nc2ccc3c(c2OC)CCCC(=O)N3CCOC)ncc1Cl` reads 205 to 207 °C; that for `COc1cc(OC)c(-c2cccs2)cc1/C=C/C(=O)c1ccc(C(=O)O)cc1`, 213 to 216 °C. Then `CNC(=O)c1sc(C(C)(C)C)cc1N`, with 230 to 231 °C; and `COC(=O)c1cnc2c(C)cc(C)cc2c1-c1ccccc1Cl`, with 117 to 118 °C; and `N#Cc1ccc(OCC(O)CN2C3CCC2CNC3)cc1` (stereo not given), with 125 to 128 °C. In the case of `Cc1cccc(COc2cccc(OCc3cnc4ccccc4n3)c2)c1C(=O)O`, the melting point lay in the range of 57 to 60 °C. On to `CCN(CC)c1nc(C)nc(N)n1`, for which the melting point was in the range of 125 to 127 °C. `CN1C(=O)CC2(c3ccccc3)CCCC3OC32C1=O` (stereo not given) had a melting point of 135 to 140 °C. Then `C=CC(=O)NC(Cc1ccccc1)C(=O)O` (stereo not given), with 136 to 138 °C; and `Cc1ccc(S(=O)(=O)N2[C@@H](CC#N)CC[C@H]2c2ccc(F)cc2)cc1` (racemic), with 116 °C; and `CC(C)(C)NC(=O)CN1C(=O)C(N)CC(c2ccc(Cl)c(Cl)c2)c2ccccc21` (stereo not given), with 140 to 150 °C.

`Cc1cc(C)c2c(c1)nc(N(CCN1CCOCC1)C1CCNCC1)n2Cc1nc(C)ccc1O` gave a melting point of 226 °C.

`Nc1ccc(CCc2ccc(Cl)c(Cl)c2)cc1O` came in with a melting point of 147 to 149 °C. In turn, `Clc1cc2c(cc1CN1CCN(CCOc3ccccc3)CC1)OCO2` gave a melting point of 72 to 76 °C. On to `O=C(Nc1ccc(C(=O)N2Cc3ccccc3Cc3ccccc32)cc1)c1c(Cl)cccc1Cl`, for which the melting point lay in the range of 257 to 259 °C. Then `Nc1cc(Cl)ccc1Oc1c(C(=O)O)n(Cc2ccccc2)c2ccccc12`, with 218 to 219 °C; and `CC(C)OC(=O)c1ccc2c(c1)ncn2-c1cccc(N2CCN(C)CC2)c1`, with 173 to 174 °C; and `C=C(C)COc1ccc(C(=O)C=Cc2ccc(F)cc2)c2oc3ccccc3c(=O)c12`, with 135 to 137 °C. The result for `CCc1[nH]n(-c2c(Cl)cc(Cl)cc2Cl)c2nc(Cc3cccc(OC)c3)nc(=O)c1-2` reads 235 to 238 °C; that for `O=C(CCCCCCC(=O)N1CCN(c2cccc(F)c2)CC1)NO`, 149 to 150 °C. Then `O=C1c2ccccc2C(O)C1Cc1ncc(C(F)(F)F)cc1Cl` (stereo not given), with 174 to 178 °C; and `CC(C)(C)c1cc(C=O)c2c(c1O)CCCC2`, with 193 to 194 °C; and `Cn1ccnc1Sc1ncc([N+](=O)[O-])n1C`, with 123 to 124 °C.

`CN(C)C(=O)Nc1ccc(OS(C)(=O)=O)c(Cl)c1` had a melting point of 130 to 132 °C.

On to `COc1ccc(C2=NN(c3ccccc3)C(c3ccc([N+](=O)[O-])cc3)C2)cc1` (stereo not given), for which the melting point was 168 to 173 °C. Then `Cc1cc(O)ccc1-c1nn(CC(C)C)c2c(F)cccc12`, with 126 to 128 °C; and `COc1c(N2CCC(N)C2)c(F)cc2c(=O)c(C(=O)O)cn(C3CC3)c12` (stereo not given), with 208 to 212 °C.
